Assay [1] deals with KB. Put plainly: Cytotoxic activity against vincristine-resistant human oral epidermoid carcinoma cell line (KB/VJ300). The class given is functional, cell-based.
For assay [2], the system named is KB. Put plainly: Cytotoxic activity against vincristine-sensitive human oral epidermoid carcinoma cell line(KB/S). It is filed as functional, cell-based.

The structures appear in SMILES notation. Converted amounts (≈) assume the structure as drawn.

For orientation: IC50 means the point on the concentration scale where inhibition reaches its midpoint. A high value points to a need for much substance. On to `CCOC1[C@H]2C[C@H]([C@H](C)O)[C@@H]3N1CCc1c([nH]c4ccccc14)[C@]3(C(=O)OC)C2` (some centres not stated), for which the half-maximal inhibitory concentration (IC50) in the assay on KB [1] and in the assay with KB [2] was over 25 µg/mL each time.

For the compound `COC(=O)[C@@]12C[C@@H]3C[C@H]([C@@H](C)O)[C@@H]1N(CCc1c2[nH]c2ccccc12)C3`, the IC50 with KB [1] was 3.5 µg/mL (≈ 9.87 µM); in the assay with KB [2], 25 µg/mL (≈ 70.5 µM).

In the case of `CC[C@H]1C[C@H]2C[C@@]3(C(=O)OC)c4[nH]c5ccc(OC)cc5c4CCN(C2C#N)[C@@H]13` (some centres not stated), the IC50 in the assay with KB [1] turned out to be 7 µg/mL (≈ 17.8 µM); in the assay on KB [2], 9.4 µg/mL (≈ 23.9 µM).

Consider `COC(=O)[C@@]12C[C@@H]3C[C@H]([C@@H](C)O)[C@@H]1N(CCc1c2[nH]c2cc(OC)ccc12)C3`, for which the IC50 in the assay on KB [1] and in the assay on KB [2] was over 25 µg/mL in each case.

As for `COC(=O)[C@]12C[C@H]3CC4[C@H](C)OCN(CCc5c1n(c1ccccc51)C3O)[C@@H]42` (some centres not stated), the concentration for half-maximal inhibition (IC50) was found to be 4 µg/mL (≈ 10.5 µM) in the assay with KB [1] and 25 µg/mL (≈ 65.4 µM) in the assay with KB [2].

As to `COC(=O)[C@]12C[C@H]3CC4[C@H](C)OCN(CCc5c1n(c1cc(OC)ccc51)C3=O)[C@@H]42` (some centres not stated), the 50% inhibitory concentration (IC50) in the assay on KB [1] and in the assay with KB [2] was over 25 µg/mL throughout.

For the compound `COC(=O)N1c2ccccc2C23CCN4CCCC5(CCC12[C@](O)(C(=O)OC)C5)[C@H]43` (some centres not stated), the IC50 was 0.64 µg/mL (≈ 1.55 µM) in the assay on KB [1] and over 25 µg/mL with KB [2].

Consider `C[C@H](O)[C@H]1C[C@H]2C[C@H]3c4[nH]c5ccccc5c4CCN(C2)[C@@H]13`, for which the concentration for half-maximal inhibition (IC50) with KB [1] worked out at 7.8 µg/mL (≈ 26.3 µM); in the assay with KB [2], 16.1 µg/mL (≈ 54.3 µM).

`CCC1C[C@H]2C[C@@]3(C(=O)OC)c4[nH]c5ccccc5c4CCN(C2=O)[C@@H]13` (some centres not stated): the half-inhibitory concentration (IC50) with KB [1] and in the assay on KB [2] was over 25 µg/mL throughout.

As to `COC(=O)[C@@]12C[C@@H]3C[C@@H]([C@H](C)O)[C@@H]1NCCc1c2n(c2cc(OC)ccc12)[C@H]3O`, the IC50 in the assay on KB [1] and with KB [2] was over 25 µg/mL throughout.

`CCOC1[C@H]2C[C@H]([C@@H](C)O)[C@@H]3N1CCc1c([nH]c4ccccc14)[C@]3(C(=O)OC)C2` (some centres not stated): the IC50 with KB [1] and in the assay with KB [2] was over 25 µg/mL in each case.

For `COC(=O)[C@@]12C[C@H]3C[C@@H](C(C)=O)[C@@H]1NCCc1c2n(c2ccccc12)C3O` (some centres not stated), the half-maximal inhibitory concentration (IC50) in the assay with KB [1] amounted to 2 µg/mL (≈ 5.43 µM); in the assay with KB [2], 25 µg/mL (≈ 67.9 µM).

Turning to `CC[C@H]1C[C@H]2C[C@@]3(C(=O)OC)c4[nH]c5ccccc5c4CCN(C2C#N)[C@@H]13` (some centres not stated), the values for the concentration for half-maximal inhibition (IC50) in the assay on KB [1] and in the assay on KB [2] were 1.4 µg/mL (≈ 3.85 µM) and 2.2 µg/mL (≈ 6.05 µM), respectively.

As to `COC(=O)[C@@]12C[C@@H]3C[C@H]([C@H](C)O)[C@@H]1N(CCc1c2[nH]c2ccccc12)C3`, the IC50 in the assay on KB [1] was 8.5 µg/mL (≈ 24 µM); with KB [2] it was over 25 µg/mL.

As for `CC[C@H]1C[C@H]2C[C@@]3(C(=O)OC)c4[nH]c5cc(OC)ccc5c4CCN(C2C#N)[C@@H]13` (some centres not stated), the values for the IC50 in the assay with KB [1] and with KB [2] were 1.1 µg/mL (≈ 2.8 µM) and 1.9 µg/mL (≈ 4.83 µM), respectively.

`CC[C@H]1C[C@@H]2C[C@@]3(C(=O)OC)c4c(c5ccccc5n4C2O)CCN[C@@H]13` (some centres not stated): the IC50 was 2.5 µg/mL (≈ 7.05 µM) in the assay on KB [1] and 3.5 µg/mL (≈ 9.87 µM) in the assay with KB [2].

With `COC(=O)[C@@]12C[C@@H]3C[C@H]([C@@H](C)O)[C@@H]1N(CCc1c2[nH]c2ccccc12)C3=O`, the half-inhibitory concentration (IC50) with KB [1] and in the assay with KB [2] was over 25 µg/mL each time.

As to `CC[C@H]1C[C@H](CO)C[C@@]2(C(=O)OC)c3[nH]c4ccccc4c3CCN[C@@H]12`, the 50% inhibitory concentration (IC50) with KB [1] and in the assay on KB [2] was over 25 µg/mL throughout.

For the compound `COC(=O)[C@@]12C[C@@H]3C[C@H](C(C)(O)O)[C@@H]1N(CCc1c2[nH]c2cc(OC)ccc12)C3`, the 50% inhibitory concentration (IC50) in the assay with KB [1] was 14.5 µg/mL (≈ 36.2 µM); in the assay with KB [2], over 25 µg/mL.

On to `CCOC1[C@H]2C[C@H](CC)[C@@H]3N1CCc1c([nH]c4ccccc14)[C@]3(C(=O)OC)C2` (some centres not stated), for which the concentration for half-maximal inhibition (IC50) is 13 µg/mL (≈ 34 µM) with KB [1] and over 25 µg/mL in the assay with KB [2].

Regarding `CC[C@H]1C[C@@H]2CN3CCc4c([nH]c5ccccc45)C(C)(C2)[C@H]13`, the 50% inhibitory concentration (IC50) in the assay with KB [1] and with KB [2] was over 25 µg/mL throughout.

With `CC[C@H]1C[C@@H]2CN3CC[C@]4(O)C(=Nc5ccccc54)[C@](C(=O)OC)(C2)[C@H]13` [CORONARIDINE HYDROXYINDOLENINE], the IC50 with KB [1] and in the assay with KB [2] was over 25 µg/mL each time.

In the case of `CC[C@H]1C[C@@H]2CN3CCc4c([nH]c5ccccc45)[C@](C(=O)OC)(C2)[C@H]13` [CORONARIDINE], the figures for the IC50 with KB [1] and in the assay with KB [2] were 2.6 µg/mL (≈ 7.68 µM) and 11.5 µg/mL (≈ 34 µM), respectively.

On to `CC[C@H]1C[C@@H]2CN3CCc4c([nH]c5cc(OC)ccc45)[C@](C(=O)OC)(C2)[C@H]13` [ISOVOACANGINE], for which the half-inhibitory concentration (IC50) in the assay with KB [1] and with KB [2] was over 25 µg/mL each time.

Regarding `COC(=O)[C@@]12C[C@@H]3C[C@H]([C@H](C)O)[C@@H]1N(CCc1c2[nH]c2cc(OC)ccc12)C3` [ISOVOACRISTINE], the IC50 is 18.8 µg/mL (≈ 48.9 µM) in the assay with KB [1] and over 25 µg/mL in the assay on KB [2].

Consider `CC[C@H]1C[C@@H]2CN3CCc4c([nH]c5ccc(OC)cc45)[C@](C(=O)OC)(C2)[C@H]13` [VOACANGINE], for which the half-inhibitory concentration (IC50) with KB [1] and in the assay on KB [2] was over 25 µg/mL throughout.

The values above are taken from ChEMBL document CHEMBL1137185, “Cytotoxic effects and reversal of multidrug resistance by ibogan and related indole alkaloids” (Bioorg Med Chem Lett, 2004).
